Values of other authors as cited in paper PMC2818531 (Bioorganic & medicinal chemistry letters, 2009).

Biological target: HIV gp41 six-helix bundle (6-HB) (Human immunodeficiency virus type 1 group M subtype B, UniProt P04578)
Settings: read-out: EC50, inhibition of gp41 6-helical bundle formation

HIV gp41 six-helix bundle (6-HB), sequence (P04578 546-581): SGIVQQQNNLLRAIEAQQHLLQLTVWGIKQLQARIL

For `Cc1ccc(C)n1-c1ccc(O)c(C(=O)O)c1` [Ligand A12], the EC50 is listed as 37.4 µM.
